Source: patent US20100130408A1, “USE OF MODIFIED CYCLOSPORINS” (priority 2006, published 2010)

Legend:
[1] = test system: HSCs; experiment: Type 1 collagen assay (ELISA of culture media); assay type: cell-based; details: rat HSCs
Method: (§1) A. In vitro Cell culture: HSCs are isolated from the liver of male Wistar rats by sequential in situ perfusion with collagenase and digestion with pronase, followed by centrifugation in a double-layered (17%/11.5%) metrizamide solution (Sigma. Chemical, St. Louis, Mo.), as described in Kato, et al, J. Hepatol (1999) 31:91-99. HSCs are cultured in Dulbecco's modified Eagle's medium (DMEM) with 10% fetal calf serum (FCS). Experiments are performed on cells between the third and fourth serial passages. To measure […] matrix metalloproteinase (MMP-1) and tissue inhibitor of matrix metalloproteinase (TIMP-1), TWNT-4 cells which is a human cell line derived from HSCs as produced according to Shibata, et al, Cell Transplant (2003) 12:499-507 is used for evaluating the effects of Fasudil on MMP-1 and TIMP-1. TWNT-4 cells are cultured in DMEM with 10% FCS as reported previously (Id). NIM811 (Novartis Pharma AG, Basel, Switzerland) is dissolved in DMEM and added to cultures. Cell viability of HSCs is more than 90% under serum-free conditions for 24 h in the presence of 2 μM NIM811.
Type 1 collagen assay: Cultured HSCs are incubated in serum-free medium in the presence or absence of NIM811 for 24 h. Type I collagen is determined in culture media by ELISA as described in Iwamoto, et al, J. Hepatol (2000) 32:762-770. […]

[2] = test system: TWNT-4 cells; experiment: MMP-1, TIMP-1, and collagenase assay; assay type: cell-based, human
Method: as §1
MMP-1, TIMP-1, and collagenase assay: Cultured TWNT-4 cells are incubated in serum-free medium in the presence or absence of NIM811 for 24 h. MMP-1 and TIMP-1 production are determined in culture media by ELISA with a Biotrak ELISA system for human MMP-1 (Amersham Biosciences, Piscataway, N.J., USA) and an hTIMP-1 kit (Daiichi Fine Chemical Co. Ltd., Toyama, Japan), respectively following procedures described in Fukushima, et al, Liver Int (2005) 25:829-838. Active MMP-1 and pro-MMP-1 in culture media are determined with a MMP-1 Biotrak Activity Assay System (Amersham).

[3] = test system: TWNT-4 cells; experiment: gene expression using real time RT-PCR; assay type: cell-based, human; details: 0.5 μM
Method: Analysis of gene expression using real time RT-PCR: Total RNA is prepared from TWNT-4 cells with Trizol reagent (Invitrogen, Carlsbad, Calif., USA), which are maintained in either the presence or absence of NIM811 in 10% FCS for 24 h. cDNA is synthesized from […] RNA with GeneAmp™ RNA PCR (Applied Biosystems, Branchburg, N.J., USA) using random hexamers. Real-time PCR is performed using LightCycler-FastStart DNA Master SYBR Green 1 (Roche, Tokyo, Japan) as described in Nakamuta, et al, Int J. Mol Med (2005) 16(4):631-635. A reaction mixture (20 μl) is used containing LightCycler-FastStart DNA Master SYBR Green 1, 4 mM MgCl2, 0.5 μM of the upstream and downstream PCR primers, and […] of the first strand cDNA as a template. To control for variations in the reactions, all PCRs are normalized against glyceraldehyde-3-phosphate dehydrogenase (GAPDH) expression. The primers which may be used are as follows: 5′-[…]-3′ (forward primer) (SEQ ID NO. 1) and 5′-[…]-3′ (reverse primer)(SEQ ID NO. 2) for human type I collagen a1 chain (GenBank™ accession number NM-000088) (21); 5′-[…]-3′ (forward primer)(SEQ ID NO. 3) and 5′-[…]-3′ (reverse primer) for human a-SMA (GenBank™ accession number […]); 5′-[…]-3′ (forward primer) and 5′-[…]-3′ (reverse primer) for MMP-1 (GenBank™ accession number NM002421); 5′-[…]-3′ (forward primer) and 5′-[…]-3′ (reverse primer)(SEQ ID NO. 4) for TIMP-1 (GenBank™ accession number NM003254); 5′-[…]-3′ (forward primer)(SEQ ID NO. 5) and 5′-[…]-3′ (reverse primer)(SEQ ID NO. 6) for Smad7 (Quan, et al, J Biol Chem (2005) 80:8079-8085); 5′-[…]-3′ (forward primer)(SEQ ID NO. 7) and 5′-[…]-3′ (reverse primer)(SEQ ID NO. 8) for transforming growth factor □ receptor I (TGFβRI) (Woszcyk et al, Med Sci Monit (2004) 10:C33-C37)).

[4] = test system: HSCs; experiment: BrdU incorporation (cell proliferation ELISA); assay type: cell-based, rat
Method: as §1, with “Cell viability of HSCs is more than 90% under serum-free conditions for 24 h in the presence of 2 μM NIM811.” left out
Analysis of BrdU incorporation: HSC incorporation of BrdU is measured using a cell proliferation ELISA (Roche Diagnostics GmbH, Mannheim, Germany) as described in Higashi, et al, J. Lab Clin Med (2005) 145(6):316-322. […] BrdU incorporation is estimated by measuring the […].

[5] = test system: HCV; details: Watashi et al., Hepatology (2003); cited from earlier work
[6] = test system: cultured mouse hepatocytes; details: Kon et al, Hepatology (2004); cited from earlier work
[7] = molecular target: cyclophilin A (Homo sapiens, UniProt P62937); details: Waldmeier et al, Mol Pharmacol (2002); cited from earlier work
cyclophilin A, sequence (P62937 whole entry, species assumed): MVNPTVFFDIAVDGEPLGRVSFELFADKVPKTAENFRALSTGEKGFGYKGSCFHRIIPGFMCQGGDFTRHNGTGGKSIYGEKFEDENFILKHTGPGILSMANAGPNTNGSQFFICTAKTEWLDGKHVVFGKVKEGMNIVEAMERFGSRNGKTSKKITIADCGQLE

In the case of `C/C=C/C[C@@H](C)[C@@H](O)[C@H]1C(=O)N[C@@H](CC)C(=O)N(C)CC(=O)N(C)[C@@H]([C@@H](C)CC)C(=O)N[C@@H](C(C)C)C(=O)N(C)[C@@H](CC(C)C)C(=O)N[C@@H](C)C(=O)N[C@H](C)C(=O)N(C)[C@@H](CC(C)C)C(=O)N(C)[C@@H](CC(C)C)C(=O)N(C)[C@@H](C(C)C)C(=O)N1C` [NIM811], the “reduction of collagen accumulation” value ([1]; 0.5 μM) is reported as “approximately 50%”, the “suppression of collagen accumulation” value ([1]; increasing concentrations, 24 h) is reported as “concentration-dependent suppression of collagen accumulation” and the “increase in collagenase activity (active MMP-1)” value ([2]; 0.5 μM) is reported as “roughly 2 fold”. For the same compound, the TIMP-1 production ([2]; 2.0 μM) was “does not significantly reduce TIMP-1 production”, the “collagenase activity (active MMP-1) and pro-MMP-1 levels” value ([2]; increasing concentrations) was “concentration-dependent increase” and the “enhancement of expression of Smad7” value [3] was about 2 fold. For the same compound, the “expression of TIMP-1 (mRNA)” value [3] was “did not change”, the “increase of expression of MMP-1 (mRNA)” value [3] was about 2 fold and the “reduction of expression of type I collagen (mRNA)” value [3] was “roughly 30%”. The “suppression of TGFβRI expression” value [3] was about 50%, the “cell growth of HSCs” value [4] was “suppresses cell growth of HSCs in a concentration-dependent manner” and the “decrease of new DNA synthesis (BrdU incorporation)” value ([4]; 2.0 μM) was about 30%. The “replication of HCV in vitro” value [5] was “suppresses replication of HCV replication in vitro”, the “acetaminophen-induced necrosis and apoptosis” value [6] was “prevented acetaminophen-induced necrosis and apoptosis” and the “binding to cyclophilin A” value [7] was “does not bind to cyclophilin A”.
